# Measured values taken from ChEMBL document CHEMBL4699441, “Identification and Preclinical Evaluation of the Bicyclic Pyrimidine γ-Secretase Modulator BMS-932481” (ACS Med Chem Lett, 2019).
# Assay: Induction of CYP3A4 mRNA expression in human hepatocytes at 3.3 to 10 uM relative to control
# Format: ADME, cell-based, Hepatocyte
# Settings: dose 3.3-10 µM
compound,measurement,value
CNc1nc(Nc2ccc(-n3cnc(C)n3)c(OC)c2)nc2c1CC[C@H]2c1ccc(F)cc1,Activity,36%
